Data as given in BindingDB's records for doi:10.1021/acs.jmedchem.5b00079 (Saarland University and Helmholtz Institute For …, 2015).

Biological target: T1, Cytochrome P450 11B1, mitochondrial (Homo sapiens, UniProt P15538)
T1 sequence (P15538 whole entry): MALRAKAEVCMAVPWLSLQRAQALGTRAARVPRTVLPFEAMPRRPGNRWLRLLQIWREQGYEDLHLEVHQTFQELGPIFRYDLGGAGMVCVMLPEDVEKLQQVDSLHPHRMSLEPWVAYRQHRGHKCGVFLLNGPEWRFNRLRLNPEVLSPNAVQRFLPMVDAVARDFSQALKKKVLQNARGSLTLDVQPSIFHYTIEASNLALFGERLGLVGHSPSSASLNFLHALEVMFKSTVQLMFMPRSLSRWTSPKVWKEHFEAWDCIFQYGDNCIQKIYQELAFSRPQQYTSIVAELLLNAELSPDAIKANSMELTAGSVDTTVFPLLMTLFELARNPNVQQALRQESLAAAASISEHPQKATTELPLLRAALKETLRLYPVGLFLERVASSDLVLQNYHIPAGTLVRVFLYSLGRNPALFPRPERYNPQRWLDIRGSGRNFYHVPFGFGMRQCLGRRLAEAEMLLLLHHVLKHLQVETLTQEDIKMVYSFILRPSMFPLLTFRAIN
Assay: Inhibition of human CYP11B1 expressed in V79 MZh cells using [14C]-deoxycorticosterone substrate incubated for 6 hrs by HPTLC method

`Cc1nnc2n1-c1c(F)cc(-c3cncc(F)c3)cc1CC2` was tested, and the IC50 was 29.5 µM.
